Results taken from US8138177B2 (dated 2012).
Where a name gives a salt, the structure may show the parent alone.

SMILES: Cc1cccc2c1n(CCS(C)(=O)=O)c(=O)n2C(=O)N[C@H](C(=O)N(C)C)C(C)(C)C
- melting point: 190.7 °C

SMILES: CC[C@H](C)[C@H](NC(=O)n1c(=O)n(CCN2CCCCC2)c2ccccc21)C(N)=O (as salt: hydrochloride)
- melting point: 217.1 °C
